Results from PubChem BioAssay (NCI).
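Growth conditions: 96-well plates. Treatment: test compound, 48 hours, 5 concentrations. Analysis: linear interpolation between bracketing concentrations; unreached endpoints set to highest concentration. Here, GI50 denotes the concentration required for 50% inhibition of growth. Definition used: TGI = concentration required for complete inhibition of growth.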

Assays:
Test in all cases: inhibition of tumour cell growth, NCI panel, 48 h
NCI-H23 lung = system: NCI-H23 lung
SN12C renal = system: SN12C renal
M14 melanoma = system: M14 melanoma
HCC-2998 colon = system: HCC-2998 colon
IGROV1 ovarian = system: IGROV1 ovarian
HCT-116 colon = system: HCT-116 colon
KM12 colon = system: KM12 colon

| Compound | TGI (NCI-H23 lung) | TGI (SN12C renal) | TGI (M14 melanoma) | TGI (HCC-2998 colon) | TGI (IGROV1 ovarian) | TGI (HCT-116 colon) | TGI (KM12 colon) | GI50 (NCI-H23 lung) | GI50 (SN12C renal) | GI50 (M14 melanoma) | GI50 (HCC-2998 colon) | GI50 (IGROV1 ovarian) | GI50 (HCT-116 colon) | GI50 (KM12 colon) |
| --- | --- | --- | --- | --- | --- | --- | --- | --- | --- | --- | --- | --- | --- | --- |
| CN1C(=O)CC2(C)c3cc(O)cc(Br)c3N(C)C12 (stereo not drawn) | > 100 µM | > 100 µM | > 100 µM | > 100 µM | > 100 µM | > 100 µM | > 100 µM | – | – | – | – | – | – | – |
| CC1(C)NC(=O)N(CCCCCCN2C(=O)NC(C)(C)C2=O)C1=O | > 100 µM | > 100 µM | > 100 µM | > 100 µM | > 100 µM | > 100 µM | > 100 µM | – | – | – | – | – | – | – |
| COc1cccc(C=O)c1C(=O)c1cc(O)ccc1O | > 100 µM | > 100 µM | 35 µM | > 100 µM | > 62.5 µM | 39.2 µM | > 100 µM | – | – | – | – | – | – | – |
| CCc1ccccc1NC(=O)C(=O)C(C#N)c1ccccc1Cl (stereo not drawn) | > 100 µM | > 100 µM | > 100 µM | > 100 µM | > 100 µM | > 100 µM | > 100 µM | – | – | – | – | – | – | – |
| O=C(CCC(=O)Nc1ccc(Cl)c(Cl)c1)CC(=O)c1ccc2ccccc2c1 | > 100 µM | > 100 µM | > 100 µM | > 100 µM | > 100 µM | > 100 µM | > 100 µM | – | – | – | – | – | – | – |
| [O-]/N=[N+](/[O-])C1CCCCC1=[N+]1CCOCC1 (stereo not drawn) | > 100 µM | > 100 µM | > 100 µM | – | – | > 100 µM | > 100 µM | – | – | – | – | – | – | – |
| COc1cc2c(cc1OC)C(C#N)N(C(=O)c1ccccc1)C=C2OC(=O)c1ccccc1 (stereo not drawn) | > 100 µM | > 100 µM | > 100 µM | > 100 µM | 50.2 µM | – | > 100 µM | – | – | – | – | – | – | – |
| Nc1nc(N)c(CCCCc2ccccc2)c(C=O)n1 | 41.3 µM | 39.1 µM | 44.1 µM | 76.6 µM | 38.1 µM | 27.9 µM | 40.8 µM | – | – | – | – | – | – | – |
| O=C(NC(=Nc1ccccc1)SCSC(=Nc1ccccc1)NC(=O)c1ccco1)c1ccco1 | 80.6 µM | > 100 µM | > 100 µM | > 100 µM | > 100 µM | > 100 µM | > 100 µM | – | – | – | – | – | – | – |
| NC1N=Nc2ccccc21 (stereo not drawn) | > 100 µM | > 100 µM | > 100 µM | > 100 µM | > 100 µM | > 100 µM | > 100 µM | – | – | – | – | – | – | – |
| O=[N+]([O-])c1cc(-c2nc(=S)[nH][nH]2)ccc1O | > 100 µM | > 100 µM | > 100 µM | > 100 µM | > 100 µM | > 100 µM | > 100 µM | – | – | – | – | – | – | – |
| N#CCCN(CCC#N)c1ccc(/C=C(/NC(=O)c2cc([N+](=O)[O-])ccc2Cl)C(=O)NN)cc1 | > 100 µM | > 100 µM | > 100 µM | > 100 µM | > 100 µM | > 100 µM | > 100 µM | – | – | – | – | – | – | – |
| Cc1cc(=O)[nH]c(CNC(=O)c2ccc3ccccc3c2)n1 | > 100 µM | > 100 µM | > 100 µM | > 100 µM | > 100 µM | > 100 µM | > 100 µM | – | – | – | – | – | – | – |
| O=C(Cc1ccccc1[N+](=O)[O-])C(CO)c1ccccc1[N+](=O)[O-] (stereo not drawn) | > 100 µM | > 100 µM | > 100 µM | > 100 µM | > 100 µM | > 100 µM | > 100 µM | – | – | – | – | – | – | – |
| O=C(C=Nc1ccccc1C(=O)[O-])c1cccs1.O=C(C=Nc1ccccc1C(=O)[O-])c1cccs1.[Ni+2] | > 100 µM | > 100 µM | > 100 µM | > 100 µM | > 100 µM | > 100 µM | > 100 µM | – | – | – | – | – | – | – |
| COC(=O)C1CSC(c2csc(CCN)n2)=N1 (stereo not drawn) | > 100 µM | > 100 µM | > 100 µM | > 100 µM | > 100 µM | > 100 µM | > 100 µM | – | – | – | – | – | – | – |
| COc1ccc2c(c1)[n+]([O-])c(-c1cccc(Cl)c1)c(N)[n+]2[O-] | 65.6 µM | > 100 µM | – | – | > 100 µM | > 100 µM | > 100 µM | – | – | – | – | – | – | – |
| O=C(O)CN(c1ccccc1)S(=O)(=O)c1cccc([N+](=O)[O-])c1 | > 100 µM | > 100 µM | > 100 µM | – | > 100 µM | – | > 100 µM | – | – | – | – | – | – | – |
| C/C(CCn1[nH]c(=O)ccc1=O)=N\NC(=O)C(N)=O | > 100 µM | > 100 µM | > 100 µM | > 100 µM | > 100 µM | > 100 µM | > 100 µM | – | – | – | – | – | – | – |
| O=C1C(=c2ccc(=C3C(=O)c4ccc([N+](=O)[O-])cc4[N+]3=O)cc2)N([O-])c2cc([N+](=O)[O-])ccc21 | > 100 µM | > 100 µM | > 100 µM | > 100 µM | > 100 µM | > 100 µM | > 100 µM | > 100 µM | > 100 µM | > 100 µM | > 100 µM | > 100 µM | > 100 µM | > 100 µM |
| COC(=O)[C@H]1COC(=S)N1C(=O)[C@@H](C)[C@H](O)C(C)C | > 100 µM | > 100 µM | > 100 µM | > 100 µM | > 100 µM | > 100 µM | > 100 µM | – | – | – | – | – | – | – |
| COC(=O)Cc1c([C@@]2(C)CCCC(C)(C)C2)ccc2c1C(=O)OC2 | 34.6 µM | 23 µM | 26.1 µM | – | 47.5 µM | 22 µM | 30.6 µM | – | – | – | – | – | – | – |
| c1ccc2c(c1)SC(=C1Sc3ccccc3S1)S2 | > 100 µM | > 100 µM | > 100 µM | > 100 µM | > 100 µM | – | – | – | – | – | – | – | – | – |
